# Laboratory results as given in EP4389751A1, “HETEROCYCLIC COMPOUNDS AND USES THEREOF” (Kumquat Biosciences Inc., priority 2021, dated 2024).
# Molecular target: T1, KRAS protein (His-tagged GDP-loaded G12D 1-169) (Homo sapiens, UniProt P01116, G12D)
# T1 construct: His-tagged GDP-loaded G12D 1-169
# Experiment: Covalent modification of KRAS protein, intact-protein LC-MS
# Type: binding
# Settings: 24hrs at room temperature, KRAS protein ~2 µM
# Procedure, shortened: (§1)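 Percent covalent modification derives from deconvoluted intact-mass intensities of compound-adducted versus unmodified KRAS, measured by LC-ESI-MS. Before analysis, ~2 µM GDP-loaded His-KRAS 1-169 was exposed to compound for 24 h at room temperature and acidified with formic acid.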
row,SMILES,% G12D Modification at 24 hr.
1,"N#Cc1ccn(C(=O)N2C3CCC2CN(c2nc(OC[C@@]45CCCN4C[C@H](F)C5)nc4c(F)c(-c5ccc(F)c6sc(N)c(C#N)c56)c(Cl)cc24)C3)n1 [Compound A224, 1-(3-(7-(2-amino-3-cyano-7-fluorobenzo[b]thiophen-4-yl)-6-chloro-8-fluoro-2-(((2R,7aS)-2-fluorotetrahydro-1H-pyrrolizin-7a(5H)-yl)methoxy)quinazolin-4-yl)-3,8-diazabicyclo[3.2. 1]octane-8-carbonyl)-1H-pyrazole-3-carbonitrile]",++ (++ indicates between about 1%- 20% labelling)

# Molecular target: T2, KRAS protein (His-tagged GDP-loaded G12S 1-169) (Homo sapiens, UniProt P01116, G12S)
# T2 construct: His-tagged GDP-loaded G12S 1-169
# Experiment: as above
# Type: binding
# Settings: 24-hour treatment; compound pairs differ only at R^6 (warhead)
# Procedure, shortened: as §1
row,SMILES,K-Ras12S engagement after 24-hour treatment
1,"N#Cc1c(N)sc2c(F)ccc(-c3c(Cl)cc4c(N5CCC6(CN(C(=O)n7cncn7)C6)C5)nc(OC[C@@]56CCCN5C[C@H](F)C6)nc4c3F)c12 [Compound A277, 4-(4-(2-(1H-1,2,4-triazole-1-carbonyl)-2,6-diazaspiro[3.4]octan-6-yl)-6-chloro-8-fluoro-2-(((2R,7aS)-2-fluorotetrahydro-1H-pyrrolizin-7a(5H)-yl)methoxy)quinazolin-7-yl)-2-amino-7-fluorobenzo[b]thiophene-3-carbonitrile]",+++ (+++: indicates equal to or greater than 20% labelling)

# Same assay, conditions: 24hrs at room temperature, KRAS protein ~2 µM
row,SMILES,% G12S Modification at 24 hr.
1,"N#Cc1c(N)sc2c(F)ccc(-c3c(Cl)cc4c(N5CCOC6(CN(C(=O)n7ccnn7)C6)C5)nc(OC[C@@]56CCCN5C[C@H](F)C6)nc4c3F)c12 [Compound A195, 4-(4-(2-(1H-1,2,3-triazole-1-carbonyl)-5-oxa-2,8-diazaspiro[3.5]nonan-8-yl)-6-chloro-8-fluoro-2-(((2R,7aS)-2-fluorotetrahydro-1H-pyrrolizin-7a(5H)-yl)methoxy)quinazolin-7-yl)-2-amino-7-fluorobenzo[b]thiophene-3-carbonitrile]",+++ (+++ indicates greater than 20% labelling)
2,"N#Cc1c(N)sc2c(F)ccc(-c3c(Cl)cc4c(N5CCOC6CN(C(=O)n7cncn7)CC65)nc(OC[C@@]56CCCN5C[C@H](F)C6)nc4c3F)c12 (stereo partly drawn) [Compound A218, 4-(4-(6-(1H-1,2,4-triazole-1-carbonyl)hexahydropyrrolo [3,4-b][1,4]oxazin-4(4aH)-yl)-6-chloro-8-fluoro-2-(((2R,7aS)-2-fluorotetrahydro-1H-pyrrolizin-7a(5H)-yl)methoxy)quinazolin-7-yl)-2-amino-7-fluorobenzo[b]thiophene-3-carbonitrile]",+++ (+++ indicates greater than 20% labelling)
3,"N#Cc1ccn(C(=O)N2C3CCC2CN(c2nc(OC[C@@]45CCCN4C[C@H](F)C5)nc4c(F)c(-c5ccc(F)c6sc(N)c(C#N)c56)c(Cl)cc24)C3)n1 [Compound A224, 1-(3-(7-(2-amino-3-cyano-7-fluorobenzo[b]thiophen-4-yl)-6-chloro-8-fluoro-2-(((2R,7aS)-2-fluorotetrahydro-1H-pyrrolizin-7a(5H)-yl)methoxy)quinazolin-4-yl)-3,8-diazabicyclo[3.2. 1]octane-8-carbonyl)-1H-pyrazole-3-carbonitrile]",++ (++ indicates between about 1%- 20% labelling)
4,"CN(C)C1CN(c2nc(N3CCOC4(CN(C(=O)n5cncn5)C4)C3)c3cc(Cl)c(-c4ccc(F)c5sc(N)c(C#N)c45)c(F)c3n2)C1 [Compound A256, 4-(4-(2-(1H-1,2,4-triazole-1-carbonyl)-5-oxa-2,8-diazaspiro[3.5]nonan-8-yl)-6-chloro-2-(3-(dimethylamino)azetidin-1-yl)-8-fluoroquinazolin-7-yl)-2-amino-7-fluorobenzo[b]thiophene-3-carbonitrile]",+++ (+++ indicates greater than 20% labelling)
5,"N#Cc1c(N)sc2c(F)ccc(-c3c(Cl)cc4c(N[C@H]5C[C@H]6CC[C@@H](C5)N6C(=O)n5cncn5)nc(OC[C@@]56CCCN5C[C@H](F)C6)nc4c3F)c12 [Compound A257, 4-(4-(((1R,3r,5S)-8-(1H-1,2,4-triazole-1-carbonyl)-8-azabicyclo[3.2.1]octan-3-yl)amino)-6-chloro-8-fluoro-2-(((2R,7aS)-2-fluorotetrahydro-1H-pyrrolizin-7 a(5H)-yl)methoxy)quinazolin-7-yl)-2-amino-7-fluorobenzo[b]thiophene-3-carbonitrile]",++ (++ indicates between about 1%- 20% labelling)
6,"N#Cc1c(N)sc2c(F)ccc(-c3c(Cl)cc4c(OC5CCCCN(C(=O)n6cncn6)C5)nc(OC[C@@]56CCCN5C[C@H](F)C6)nc4c3F)c12 (stereo partly drawn) [Compound A258, 4-(4-((1-(1H-1,2,4-triazole-1-carbonyl)azepan-3-yl)oxy)-6-chloro-8-fluoro-2-(((2R,7aS)-2-fluorotetrahydro-1H-pyrrolizin-7a(5H)-yl)methoxy)quinazolin-7-yl)-2-amino-7-fluorobenzo[b]thiophene-3-carbonitrile]",+++ (+++ indicates greater than 20% labelling)
7,"N#Cc1c(N)sc2c(F)ccc(-c3c(Cl)cc4c(N5CCC6(CN(C(=O)n7cncn7)C6)C5)nc(OC[C@@]56CCCN5C[C@H](F)C6)nc4c3F)c12 [Compound A277, 4-(4-(2-(1H-1,2,4-triazole-1-carbonyl)-2,6-diazaspiro[3.4]octan-6-yl)-6-chloro-8-fluoro-2-(((2R,7aS)-2-fluorotetrahydro-1H-pyrrolizin-7a(5H)-yl)methoxy)quinazolin-7-yl)-2-amino-7-fluorobenzo[b]thiophene-3-carbonitrile]",+++ (+++ indicates greater than 20% labelling)
8,"Cc1nc(C)n(C(=O)N2CC3(C2)CN(c2nc(OC[C@@]45CCCN4C[C@H](F)C5)nc4c(F)c(-c5ccc(F)c6sc(N)c(C#N)c56)c(Cl)cc24)CCO3)n1 [Compound A283, 2-amino-4-(6-chloro-4-(2-(3,5-dimethyl-1H-1,2,4-triazole-1-carbonyl)-5-oxa-2,8-diazaspiro[3.5]nonan-8-yl)-8-fluoro-2-(((2R,7aS)-2-fluorotetrahydro-1H-pyrrolizin-7a(5H)-yl)methoxy)quinazolin-7-yl)-7-fluorobenzo[b]thiophene-3-carbonitrile]",+++ (+++ indicates greater than 20% labelling)
9,"N#Cc1c(N)sc2c(F)ccc(-c3c(Cl)cc4c(N5CC6(CCCCN(C(=O)n7cncn7)C6)C5)nc(OC[C@@]56CCCN5C[C@H](F)C6)nc4c3F)c12 [Compound A285, 4-(4-(6-(1H-1,2,4-triazole-1-carbonyl)-2,6-diazaspiro[3.6]decan-2-yl)-6-chloro-8-fluoro-2-(((2R,7aS)-2-fluorotetrahydro-1H-pyrrolizin-7a(5H)-yl)methoxy)quinazolin-7-yl)-2-amino-7-fluorobenzo[b]thiophene-3-carbonitrile]",+++ (+++ indicates greater than 20% labelling)
10,"C#Cc1c(F)ccc2cc(O)cc(-c3ncc4c(N5CCOCC6(CN(C(=O)n7cnc(C)n7)C6)C5)nc(OC[C@@]56CCCN5C[C@H](F)C6)nc4c3F)c12 [Compound A298, (9-(7-(8-ethynyl-7-fluoro-3-hydroxynaphthalen-1-yl)-8-fluoro-2-(((2R,7aS)-2-fluorotetrahydro-1H-pyrrolizin-7a(5H)-yl)methoxy)pyrido[4,3-d]pyrimidin-4-yl)-6-oxa-2,9-diazaspiro[3.6]decan-2-yl)(3-methyl-1H-1,2,4-triazol-1-yl)methanone]",+++ (+++ indicates greater than 20% labelling)
11,"Cc1ncn(C(=O)N2CC3CCN(c4nc(OC[C@@]56CCCN5C[C@H](F)C6)nc5c(F)c(-c6ccc(F)c7sc(N)c(C#N)c67)c(Cl)cc45)C3C2)n1 (stereo partly drawn) [Compound A304, 2-amino-4-(6-chloro-8-fluoro-2-(((2R,7aS)-2-fluorotetrahydro-1H-pyrrolizin-7a(5H)-yl)methoxy)-4-(5-(3-methyl-1 H-1,2,4-triazole-1-carbonyl)hexahydropyrrolo[3,4-b]pyrrol-1(2H)-yl)quinazolin-7-yl)-7-fluorobenzo[b]thiophene-3-carbonitrile]",+++ (+++ indicates greater than 20% labelling)
